Data published in patent US11357756B2, “Anesthetic compositions and methods comprising imidazoline compounds” (Warsaw Orthopedic, Inc., priority 2017, dated 2022).
“Also recorded” adds a separate entry of the source. Where a name gives a salt, the structure may show the parent alone.

Experiments:
sciatic nerve [1] = experiment: Spinal somatosensory evoked potentials (SSEP) after intraneural sciatic injection; format: in vivo, male Sprague Dawley (SD) rats
Description: (§1) Methods: Peripheral nerve function was assessed by evoked action potentials (sciatic nerve) as well as spinal somatosensory evoked potentials in male Sprague Dawley (SD) rats. The tibial nerve was stimulated with 10 milliamperes (mA) constant current delivered with platinum micro-electrodes placed proximal to the internal ankle. Recording electrodes were placed near the proximal sciatic nerve at the sciatic notch (ipsilateral and contralateral nerves) and over the L5 interlaminar space. Measurements were obtained with a Biopac MP36 amplifier and data acquisition unit (Biopac Systems, Goleta, Cal). Following collection of baseline data, test solutions were administered directly into the subparaneural compartment of the right sciatic nerve, approximately 0.5 cm proximal to the tibial/fibular bifurcation, using a Hamilton HPLC injection syringe (20 μl, injection volume). Saline served as the negative control and commercial 2% lidocaine for injection served as the positive control.

[2] = test system: contralateral sciatic nerve; experiment: Evoked action potentials, contralateral sciatic nerve; format: in vivo, male Sprague Dawley (SD) rats
Description: (§2) It is noted that alpha 2 adrenergic receptors are not expressed along the peripheral axons of the nerve. They are on nerve endings and in the spinal cord, where peripheral nerves synapse with interneurons in the dorsal horn. There also may be receptor-mediated effects on immunoinflammatory cells. […] However, there was no effect on the left sciatic nerve.
as §1
(§3) FIG. 21 depicts representative compound action potential traces (CAP), sciatic nerve. A stimulating electrode delivered 10 mAMP current to the distal tibial nerve near the internal ankle, and a recording electrode was placed near the proximal sciatic nerve (at the sciatic notch). Following baseline recordings (top row), test solution was injected directly into the sciatic nerve (20 μl volume). Evoked compound action potentials at 3 minutes and approximately 50 minutes post-injection appear in the middle and bottom rows, respectively.

incisional pain model = settings: no temporal relationship to systemic exposure; cited from earlier work
sciatic nerve [3] = experiment: Evoked compound action potentials (CAP), ipsilateral sciatic nerve after intraneural injection; format: in vivo, male Sprague Dawley (SD) rats; settings: for effect of yohimbine pre-administration on elimination of evoked sciatic action potentials by clonidine: 1 mg yohimbine SQ 5 minutes prior to 500 μg intraneural clonidine, HCL
From the text: as §2
2 m Amp stimulation in the ankle causes the action potential to propagate up to the tibial nerves and then the sciatic nerve to the dorsal horn of the spinal cord in the rat model.
as §1, §3

[4] = intraneural injection, 20 μl, 4 parameter non-linear regression
[5] = commercial 2% lidocaine for injection, 20 μl intraneural

In the case of Clc1cccc(Cl)c1N=C1NCCN1 [clonidine, 2,6-dichloro-N-2-imidazolidinyldenebenzenamine], the “animals in which spinal somatosensory evoked potentials were eliminated” value (sciatic nerve [1]; 500 μg intraneural) is reported as 3 out of 4, the “EC50 for spinal somatosensory evoked potentials” value (sciatic nerve [1]; [4]) is reported as 118 µg and the “effect on the contralateral sciatic nerve” value ([2]; 500 μg intraneural) is reported as “no effect”. The “effect on the contralateral sciatic nerve” value ([2]; any dose of clonidine (50-500 μg), including spinal recordings following contralateral stimulation) was “not affected”, the “effect on the left sciatic nerve” value ([2]; injected into the right sciatic nerve (Example 1)) was “no effect” and the “skin concentrations associated with analgesic effect” value (incisional pain model) was ≥ 10 ng/g. For the same compound, the “effect on CAP amplitude” value (sciatic nerve [3]; 50 μg intraneural) was “no discernable effect”, the “time through which sciatic evoked potential amplitude differed from control (p<0.05)” value (sciatic nerve [3]; 100 μg) was 7 min and the “effect on action potential (CAP) amplitude” value (“effect on action potential” for short) (sciatic nerve [3]; 100 μg intraneural, versus control, 3 minutes) was “significant reduction; also recorded: significantly blunted”. The “time through which sciatic evoked potential amplitude differed from control (p<0.05)” value (sciatic nerve [3]; 200 μg) was 18 min, the “effect on action potential” value (sciatic nerve [3]; 200 μg intraneural) was “significantly greater reduction” and the “effect on action potential” value (sciatic nerve [3]; 200 μg intraneural, listed as clonidine HCL) was “virtually eliminated”. For the same compound, the “time through which sciatic evoked potential amplitude differed from control (p<0.05)” value (sciatic nerve [3]; 500 μg) was 35 min, the “effect on compound action potentials in the ipsilateral sciatic nerve” value (sciatic nerve [3]; 500 μg intraneural) was “reliably eliminated” and the “doses at which an anesthetic like effect was observed” value (sciatic nerve [3]; Example 1, clinically relevant doses) was < 100 µg. The “dose injected directly into nerve that eliminates the action potential” value (sciatic nerve [3]; Example 2, 2 m Amp stimulation in the ankle) was ≥ 50 µg, the duration of effect (sciatic nerve [3]; Example 2, 500 mcg lasts a lot longer than 50 mcg) was “proportional to dose” and the “nerve conduction velocity as nerve fibers return to function” value (sciatic nerve [3]; higher doses) was “approximately normal”. The “effect on propagation of action potentials, right sciatic nerve” value (sciatic nerve [3]; injected directly into the right sciatic nerve of the rat (Example 1)) was “blocked the ability of the nerve to propagate action potentials to the spinal cord”, the “EC50 for evoked compound action potentials in the sciatic nerve” value (sciatic nerve [3]; [4]) was 71 µg and the “effect on nerve conduction velocity (ipsilateral sciatic nerve)” value (sciatic nerve [3]; lower doses, fibers that continue to propagate action potentials) was “modest”.

With CCN(CC)CC(=O)Nc1c(C)cccc1C [lidocaine] the “effect on the contralateral sciatic nerve” value [2, 5] was “did not affect”, the “time through which sciatic evoked potential amplitude differed from control (p<0.05)” value (sciatic nerve [3]; 2% lidocaine) was 35 min and the “time for which compound action potentials in the ipsilateral sciatic nerve and spine were eliminated” value (sciatic nerve [3]; [5]) was > 20 min. The “time over which nerve function recovered” value (sciatic nerve [3]; positive control 2% lidocaine (Example 1)) was “approximately one hour”.

With COC(=O)[C@@H]1[C@H]2C[C@H]3c4[nH]c5ccccc5c4CCN3C[C@@H]2CC[C@@H]1O [yohimbine HCL] the “effect of yohimbine pre-administration on reduction in spinal SEP amplitude by clonidine” value (sciatic nerve [1]; 1 mg yohimbine prior to 500 μg intraneural clonidine) was “no effect”, the “effect of yohimbine pre-administration on elimination of evoked sciatic action potentials by clonidine” value (sciatic nerve [3]) was “unaffected; also recorded: no effect” and the “effect of yohimbine pre-administration on elimination of evoked sciatic action potentials by clonidine” value (sciatic nerve [3]; listed as yohimbine) was “no effect”. For the same compound, the “effect of yohimbine pre-administration on sciatic nerve block duration by clonidine” value (sciatic nerve [3]; pre-administration t=(−)10 minutes) was “did not inhibit”.
